Source: US20230391817A1, “5ALPHA-HYDROXY-6BETA-[2-(1-H-IMIDAZOL-4-YL)-ETHYLAMINO]-CHOLESTAN-3BETA-OL ANALOGUES AND PHARMACEUTICAL COMPOSITIONS COMPRISING SAME FOR USE IN THE TREATMENT OF CANCER” (priority 2020, published 2023)

Tests used:
[1] = biological target: T1, Cholesterol Epoxide Hydrolase (ChEH) (Homo sapiens, UniProt Q15125+Q9UBM7); assay: Cholesterol Epoxide Hydrolase (ChEH) activity in MCF-7 cells, [14C]5,6α-EC metabolism by TLC; format: cell-based; conditions: 1 μM, 24 h, [14C]5,6α-EC 0.6 μM
T1 construct: endogenous in cells; host or cells: MCF-7
T1 sequence (Q15125 whole entry): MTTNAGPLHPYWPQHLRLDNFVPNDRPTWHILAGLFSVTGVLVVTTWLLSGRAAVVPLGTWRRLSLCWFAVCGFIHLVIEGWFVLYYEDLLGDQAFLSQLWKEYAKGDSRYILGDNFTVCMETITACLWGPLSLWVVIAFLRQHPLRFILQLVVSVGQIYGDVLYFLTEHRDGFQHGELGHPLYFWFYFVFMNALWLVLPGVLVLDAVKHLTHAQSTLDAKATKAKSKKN
T1 sequence (Q9UBM7 whole entry): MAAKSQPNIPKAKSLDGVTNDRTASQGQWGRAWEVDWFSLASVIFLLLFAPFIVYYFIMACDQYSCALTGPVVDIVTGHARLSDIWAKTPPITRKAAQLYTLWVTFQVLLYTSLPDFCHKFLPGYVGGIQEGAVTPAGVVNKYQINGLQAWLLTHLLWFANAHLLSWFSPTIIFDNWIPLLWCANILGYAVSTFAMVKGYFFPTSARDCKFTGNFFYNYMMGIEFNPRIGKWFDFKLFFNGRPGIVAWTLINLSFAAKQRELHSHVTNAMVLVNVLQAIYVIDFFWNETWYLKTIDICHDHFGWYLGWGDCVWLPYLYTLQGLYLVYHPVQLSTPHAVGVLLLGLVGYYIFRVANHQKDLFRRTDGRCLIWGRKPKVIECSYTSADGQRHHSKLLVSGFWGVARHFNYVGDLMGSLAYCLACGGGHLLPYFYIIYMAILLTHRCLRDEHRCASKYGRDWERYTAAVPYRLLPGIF
From the text: The compounds 5,6α-epoxycholesterol (5,6α-EC) and 5,6p-epoxycholesterol (5,6p-EC) are oxysterols involved in the anticancer pharmacology of tamoxifen, a widely used antitumor drug. Both are metabolized to cholestane-3β,5α,6β-triol (CT) by the enzyme cholesterol-5,6-epoxide hydrolase (ChEH), and CT is metabolized by the enzyme HSD11B2 (11β-hydroxysteroid dehydrogenase 2) to 6-oxocholestane-3β,5α-diol (OCDO), a tumor-promoting oncosterone.
MCF-7 cells are in a cell culture medium identical to that of Example 5 and are seeded in 6-well plates at 150 000 cells per well with three wells per treatment condition. […] Tamoxifen is used as a positive control for 3α-fluoro-5α-hydroxy-6β-[2-(1H-imidazol-4-yl)ethylamino]cholestane and 5α-hydroxy-6β-[2-(1H-imidazol-4-yl)ethylamino]cholestan-3β-ol (1 μM for all molecules).
After 24 hours of treatment, the media are collected and lipid extracts are prepared from the cell pellets by extraction with 100 μL of chloroform, 400 μL of methanol, and 300 μL of water.
The lipid extracts are analyzed by thin layer chromatography (TLC) using ethyl acetate (EtOAc) as eluent. The analysis is performed with a plate reader and then by autoradiography.

[2] = system: murine 4T1 mammary tumor cells; assay: Cell viability of 4T1 cells, CellTox Green Cytotoxicity Assay; format: cell-based; conditions: Mus musculus, 4T1, Green Cytotoxicity Assay, 48 h
Description: (§1) Cell viability tests were performed on murine 4T1 mammary tumor cells characterized as triple negative (HER2-, ER-, PR-).
(§2) For this experiment, a cell culture medium was prepared. The culture medium consisted of Dulbecco's Modified Eagle Medium (DMEM, sold by Westburg as LO BE12-604F), comprising 4.5 g/L glucose with L-glutamine, to which 10% fetal calf serum (FCS) and 50 U/ml penicillin/streptomycin are added. The 4T1 cells were introduced into this culture medium.
(§3) 96-well plates were seeded with 2000 4T1 cells per well. After 72 hours (h) of culture under normal condition, i.e. in an incubator at 37° C. at […], the 4T1 cells were treated for 48 h with DX101, DX103, DX111, DX123, DX125, DX127 and DX129 at 100 nM, 1 μM, 2.5 μM and 10 μM. A control condition (CTL) is also performed in parallel using the previously described protocol without treatment with the molecules DX101, DX103, DX111, DX123, DX125, DX127 or DX129.
For the third method, the percentage viability is determined using the CellTox Green Cytotoxicity Assay kit (Promega). This assay measures cell death via a change in membrane integrity. […] Consequently, the higher the fluorescence in the wells, the greater the cell death. […] The percentage of cell death is determined using the 100% cell death control (made from untreated cells incubated in the presence of the lysis solution for 30 minutes at 37° C. prior to the addition of Celltox green reagent), and the cell viability in each well is then deduced from this percentage. The IC50 is then determined as explained previously.

[3] = system: murine 4T1 mammary tumor cells; assay: Cell viability of 4T1 cells, LDH; format: cell-based; conditions: Mus musculus, 4T1, LDH, 48 h
Description: as §1, §2, §3
For the second method, the percentage of viability is determined by assaying the activity of the enzyme LDH (lactate dehydrogenase) in cell supernatants using the non radioactive cytotoxicity assay kit (Promega). LDH is an enzyme released in the supernatant of dead cells. The higher the LDH activity in the supernatant, the greater the cell death. In this enzyme assay, the LDH released converts a violet tetrazolium salt to a red colored formazan, absorbing at 490 nm. The intensity of the red color is proportional to the number of dead cells. After 48 h of treatment, the supernatants are transferred to a new 96-well plate and incubated for 30 minutes in the presence of substrate mix at room temperature. The reaction is stopped with stop solution reagent and the absorbance is determined at 490 nm. The percentage of cell death is determined here using a 100% maximum LDH activity control (made from untreated cells incubated in the presence of lysis solution for 45 minutes at 37° C. just prior to addition of the substrate mix), and the cell viability in each well is then deduced from this percentage. The IC50 is then determined as explained in the preceding paragraph.

[4] = system: murine 4T1 mammary tumor cells; assay: Cell viability of 4T1 cells, MTT; format: cell-based; conditions: for cytotoxic activity compared with DX101: 4T1, Tables 1a, 1b and 1c (MTT, LDH, Green Cytotoxicity Assay); for IC50: Mus musculus, 4T1, MTT, 48 h
Description: as §1, §2, §3
(§4) The cell viability is measured by three different methods. For the first method, MTT labeling is performed at 48 hours. This test is based on the use of the tetrazolium salt MTT (3-(4,5-dimethylthiazol-2-yl)-2,5-diphenyltetrazolium bromide). Tetrazolium is reduced by mitochondrial succinate dehydrogenase in active live cells to formazan, a purple colored precipitate. The amount of precipitate formed is proportional to the amount of live cells but also to the metabolic activity of each cell. Thus, a simple determination of the optical density at 550 nm by spectroscopy makes it possible to determine the relative amount of live and metabolically active cells. After 48 hours, the medium is aspirated, and the cells are incubated with MTT (0.5 mg/ml in culture medium) for about 3 hours. The MTT solution is aspirated and the purple crystals are dissolved in dimethyl sulfoxide (DMSO). The OD (optical density) is measured at 550 nm. The percentage of viability is then determined in each well against the CTL and the IC50 (concentration at which 50% of cells remain alive) is determined for each molecule with the Prism software using a nonlinear regression curve (log(inhibitor) vs. Response).

[5] = system: BT-474 human mammary tumor cells; assay: Cell viability of BT-474 cells, MTT; format: cell-based; conditions: for activity compared with DX101: BT-474, Tables 2a, 2b and 2c (MTT, LDH, Trypan Blue); for Mean LogIC50 (±SEM) / IC50: BT-474, MTT, 48 h; for Mean LogIC50 (±SEM): log of IC50 in μM; for IC50: Homo sapiens
Description: as §4
(§5) Cell viability tests were also performed on BT-474 human mammary tumor cells (characterized as triple positive HER2+, ER+, PR+). The BT-474 cells were in a cell culture medium identical to the previous example and seeded in 24-well plates at 70 000 cells per well for cell viability determination using trypan blue, or in 96-well plates at 13 000 cells per well for cell viability determination using the MTT or LDH assay. After 96 hours (h) of culture under normal conditions, i.e. in an incubator at 37° C. with […], BT-474 cells were treated for 48 h with DX101, DX103, DX105, DX111, DX123 and DX127 at 100 nM, 1 μM, 2.5 μM and 10 μM. A control is also performed using the protocol described previously without treatment with DX101, DX103, DX105, DX111, DX123 and DX127.
(§6) After a 10-minute trypsin digestion at 37° C., the cell survival was also quantified by means of a trypan blue test with automatic counting using the Biorad TC20 machine (TC20™ Automated Cell Counter). The trypan blue test is based on the integrity of cell membranes, which is disrupted in the dead cells. Trypan blue stains dead cells blue. The Biorad TC20 cell counter counts the proportion of blue and non-blue cells, and reports the percentage of cells. The percentage of viability is then determined in each well relative to the untreated cells and the IC50 is determined as explained in the preceding example. Also, the percentage viability of the BT-474 cells was determined using the MTT and LDH assay, performed as described in the preceding example.

[6] = Oral pharmacokinetic study in rat, LC/MS assay in plasma (Examples 21-24); format: in vivo; conditions: in vivo, po, 50 mg/kg
Description: The following study is an LC/MS assay in plasma of the various molecules over 3 days (11 measurement points in the end). The graphs are always presented in comparison with DX101 which is the reference.
Plasma sampling at 0 (without injection), 5, 10, 15, 30 min, 1 h, 4 h, 8 h, 24 h, 48 h, 72 h (11 points)

[7] = system: BT-474 human mammary tumor cells; assay: Cell viability of BT-474 cells, trypan blue; format: cell-based; conditions: BT-474, Trypan Blue, 48 h; for Mean LogIC50 (±SEM): log of IC50 in μM; for IC50: Homo sapiens
Description: as §5, §6

[8] = log of IC50 in μM, read-out: Mean LogIC50 (±SEM) (converted)

SMILES: CC/C(=C(\c1ccccc1)c1ccc(OCCN(C)C)cc1)c1ccccc1 [tamoxifen, reference compound]
- inhibition of ChEH activity [1]: total inhibition

SMILES: CC(C)CCC[C@@H](C)[C@H]1CC[C@H]2[C@@H]3C[C@@H](NCCc4c[nH]cn4)[C@@]4(O)C[C@@H](N)CC[C@]4(C)[C@H]3CC[C@]12C [DX125, 3β-amino-5α-hydroxy-6β-[2-(1H-imidazol-4-yl)ethylamino]cholestane]
- IC50 [2, 8]: 22.4 µM
- IC50 ([2]; read-out: IC50): > 10 µM
- IC50 [3, 8]: 36.3 µM
- IC50 ([3]; read-out: IC50): > 10 µM
- cytotoxic activity compared with DX101 [4]: lower
- IC50 [4, 8]: 145 µM
- IC50 ([4]; read-out: IC50): > 10 µM

SMILES: CC(=O)N[C@H]1CC[C@]2(C)[C@H]3CC[C@]4(C)[C@@H]([C@H](C)CCCC(C)C)CC[C@H]4[C@@H]3C[C@@H](NCCc3c[nH]cn3)[C@@]2(O)C1 [DX127, 3β-acetamido-5α-hydroxy-6β-[2-(1H-imidazol-4-yl)ethylamino]cholestane]
- IC50 [2, 8]: 11 µM
- IC50 ([2]; read-out: IC50): 10.9 µM
- activity compared with DX101 [5]: similar
- IC50 [3, 8]: 7.08 µM
- IC50 ([3]; read-out: IC50): 7.09 µM
- cytotoxic activity compared with DX101 [4]: lower
- IC50 [4, 8]: 11.7 µM
- IC50 ([4]; read-out: IC50): 11.7 µM

SMILES: CC(C)CCC[C@@H](C)[C@H]1CC[C@H]2[C@@H]3C[C@@H](NCCc4c[nH]cn4)[C@@]4(O)C[C@@H](N=[N+]=[N-])CC[C@]4(C)[C@H]3CC[C@]12C [DX123, 3β-azido-5α-hydroxy-6β-[2-(1H-imidazol-4-yl)ethylamino]cholestane]
- IC50 [2, 8]: 2.09 µM
- IC50 ([2]; read-out: IC50): > 10 µM
- activity compared with DX101 [5]: tends to be superior
- Area under the curve [6]: 6711
- Max concentration [6]: 721 nM
- Time for Cmax [6]: 4 min
- bioavailability / extent of absorption compared with DX101 [6]: twofold higher bioavailability
- IC50 [3, 8]: 1.45 µM
- IC50 ([3]; read-out: IC50): 1.45 µM
- cytotoxic activity compared with DX101 [4]: tendency to be higher
- IC50 [4, 8]: 5.89 µM
- IC50 ([4]; read-out: IC50): 5.94 µM

SMILES: CC(C)CCC[C@@H](C)[C@H]1CC[C@H]2[C@@H]3C[C@@H](NCCc4c[nH]cn4)[C@@]4(O)C[C@@H](S(C)(=O)=O)CC[C@]4(C)[C@H]3CC[C@]12C [DX129, 3β-methylsulfonyl-5α-hydroxy-6β-[2-(1H-imidazol-4-yl)ethylamino]cholestane]
- IC50 [2, 8]: 16.2 µM
- IC50 ([2]; read-out: IC50): 16.2 µM
- IC50 [3, 8]: 3.89 µM
- IC50 ([3]; read-out: IC50): 3.87 µM
- cytotoxic activity compared with DX101 [4]: lower
- IC50 [4, 8]: 15.1 µM
- IC50 ([4]; read-out: IC50): 15.1 µM

SMILES: CCO[C@H]1CC[C@]2(C)[C@H]3CC[C@]4(C)[C@@H]([C@H](C)CCCC(C)C)CC[C@H]4[C@@H]3C[C@@H](NCCc3c[nH]cn3)[C@@]2(O)C1 [DX105, 3β-ethoxy-5α-hydroxy-6β-[2-(1H-imidazol-4-yl)ethylamino]cholestane]
- Mean LogIC50 (±SEM) [7]: 0.55 ± 0.14
- IC50 [7]: 3.57 µM
- Mean LogIC50 (±SEM) [5]: 0.86 ± 0.04
- activity compared with DX101 [5]: similar
- IC50 [5]: 4.08 µM
- Area under the curve [6]: 145590
- Max concentration [6]: 197 nM
- Time for Cmax [6]: 240 min
- bioavailability / extent of absorption compared with DX101 [6]: equivalent to (or even slightly higher than)
- maximum concentration compared with DX101 [6]: much higher maximum concentration
- speed of absorption compared with DX101 [6]: much faster absorption

SMILES: CCCCCCCCO[C@H]1CC[C@]2(C)[C@H]3CC[C@]4(C)[C@@H]([C@H](C)CCCC(C)C)CC[C@H]4[C@@H]3C[C@@H](NCCc3c[nH]cn3)[C@@]2(O)C1 [DX115, 3β-octanoxy-5α-hydroxy-6β-[2-(1H-imidazol-4-yl)ethylamino]cholestane]
- IC50 [2, 8]: 25.1 µM
- IC50 ([2]; read-out: IC50): > 10 µM
- IC50 [3, 8]: 17.4 µM
- IC50 ([3]; read-out: IC50): > 10 µM
- IC50 [4, 8]: 37.2 µM
- IC50 ([4]; read-out: IC50): > 10 µM

SMILES: CO[C@H]1CC[C@]2(C)[C@H]3CC[C@]4(C)[C@@H]([C@H](C)CCCC(C)C)CC[C@H]4[C@@H]3C[C@@H](NCCc3c[nH]cn3)[C@@]2(O)C1 [DX103, 3β-methoxy-5α-hydroxy-6β-[2-(1H-imidazol-4-yl)ethylamino]cholestane]
- IC50 [2, 8]: 2.63 µM
- IC50 ([2]; read-out: IC50): 2.63 µM
- Mean LogIC50 (±SEM) [7]: 0.42 ± 0.25
- IC50 [7]: 2.62 µM
- Mean LogIC50 (±SEM) [5]: 0.85 ± 0.05
- activity compared with DX101 [5]: similar
- IC50 [5]: 7.08 µM
- Area under the curve [6]: 105351
- Max concentration [6]: 135 nM
- Time for Cmax [6]: 240 min
- bioavailability / extent of absorption compared with DX101 [6]: slightly lower bioavailability
- speed of absorption compared with DX101 [6]: faster absorption
- IC50 [3, 8]: 4.37 µM
- IC50 ([3]; read-out: IC50): 4.4 µM
- IC50 [4, 8]: 3.16 µM
- IC50 ([4]; read-out: IC50): 3.16 µM
